Molecules are shown by their SMILES. Inconclusive results are not listed.

The record followed here is PubChem BioAssay AID624405 (Broad Institute, 2012).

This assay deals with C2C12 myotubes + simvastatin, ATP luminescence, 48 h. Nature of the assay: suppressors of statin myotoxicity in myotubes, dose response, cell-based, C2C12 myotubes, ATP luminescence, cherry pick (AID 624405).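 Note: myotubes are challenged with simvastatin at 10 µM to lower ATP.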
Take `C[C@@H]1CN([C@H](C)CO)C(=O)c2cc(NC(=O)Cc3cn(C)c4ccccc34)ccc2O[C@@H]1CN(C)Cc1ccc(C(=O)Nc2ccccc2N)cc1`: the AC40 was 9.69 µM.

Consider `Oc1[nH]c2ccccc2c1C=Nc1ccc2c(c1)OCO2`, for which the AC40 is 1.99 µM.

As for `O=C(NCC(c1cccnc1)N1CCN(c2ccc(F)cc2)CC1)c1ccc2c(c1)OCO2` (stereo not drawn), the AC40 was 5.7 µM.

Consider `CC1(Cc2cccc(F)c2)C(=O)Nc2ccc(S(=O)(=O)NC3CCCCC3)cc21` (stereo not drawn), for which the AC40 is 1.66 µM.

In the case of `Cc1nn(Cc2ccccc2Cl)c2sc(C(=O)NCc3ccc4c(c3)OCO4)cc12`, the AC40 is 12.5 µM.

As for `C[C@H](CO)N1C[C@H](C)[C@H](CN(C)CC2CCCCC2)Oc2ccc(NC(=O)CCCCCC(=O)Nc3ccccc3N)cc2CC1=O`, the AC40 is 10.1 µM.

Take `C[C@H](CO)N1C[C@H](C)[C@@H](CN(C)Cc2ccc(Cl)c(Cl)c2)Oc2ccc(NS(=O)(=O)c3ccc(F)cc3)cc2CC1=O`: the AC40 is 19 µM.

For the compound `CC(C)(C)c1ccc(OCC(=O)N/N=C/c2cc(Br)ccc2OC(=O)c2ccco2)cc1`, the AC40 is 2.32 µM.

For the compound `CCn1c(CNc2ccc(F)cc2)nnc1SCC(=O)Nc1ccc(OC)cc1`, the AC40 is 5.81 µM.

For the compound `C[C@H]1CN([C@@H](C)CO)C(=O)Cc2cc(NS(=O)(=O)c3ccc(Cl)cc3)ccc2O[C@@H]1CN(C)CC1CCCCC1`, the AC40 was 15.1 µM.

For `CCCCCCn1c(C(C)O)nc2ccccc21` (stereo not drawn), the AC40 is 1.94 µM.

`CCOc1ccccc1NC(=O)C1CCCN(S(=O)(=O)c2ccc(OC)c(C)c2)C1` (stereo not drawn): the AC40 is 8.06 µM.

With `C[C@@H]1CN([C@H](C)CO)C(=O)Cc2cc(NC(=O)CCCCCC(=O)Nc3ccccc3N)ccc2O[C@@H]1CN(C)Cc1ccc(Cl)c(Cl)c1`, the AC40 was 9.57 µM.

Turning to `Cc1cccc(-c2nnc3n2N=C(c2ccccc2Br)CS3)c1`, the AC40 was 0.28 µM.

In the case of `Cc1ccc(N2CC(C(=O)Nc3ccc(N(C)C)cc3)CC2=O)cc1C` (stereo not drawn), the AC40 was 12 µM.

For `NS(=O)(=O)OCC(Cc1ccccc1)N1C(=O)c2ccccc2C1=O` (stereo not drawn), the AC40 was 14.6 µM.

Regarding `C[C@@H]1CN([C@@H](C)CO)C(=O)Cc2cc(NC(=O)CCCCCC(=O)Nc3ccccc3N)ccc2O[C@@H]1CN(C)CC1CCCCC1`, the AC40 is 7.13 µM.

For the compound `COc1ccc(CN2[C@H](CO)[C@H]3c4ccccc4NC[C@H]32)cc1`, the AC40 is 17.8 µM.

Consider `CCCCNc1oc(-c2cccs2)nc1S(=O)(=O)c1ccccc1`, for which the AC40 was 7.73 µM.

Turning to `COc1ccc(N(Cc2cc3ccccc3[nH]c2=O)S(=O)(=O)c2ccccc2)cc1`, the AC40 was 5.81 µM.

Turning to `O=C(CCCSc1nc(-c2ccco2)cc(C(F)(F)F)n1)NCc1cccs1`, the AC40 is 15.1 µM.

As to `COc1cc2c(cc1OC)C(=O)CCS2`, the AC40 was 1.88 µM.

In the case of `CC(C)(C)c1ccc(Cn2nnc3c(=O)[nH]c(C4CCN(C(=O)Cc5cccs5)CC4)nc32)cc1`, the AC40 was 3.99 µM.

With `CC(C)OC(=O)N(C)C[C@@H]1OCc2ccccc2-c2c(n(C)c3ccccc23)C(=O)N([C@H](C)CO)C[C@H]1C`, the AC40 was 18.1 µM.

Turning to `CCOc1ccccc1NC(=O)c1ccccc1N(C)S(C)(=O)=O`, the AC40 was 5.38 µM.

Take `C[C@@H]1CN([C@H](C)CO)C(=O)c2cccc(NC(=O)Nc3ccccc3)c2O[C@H]1CN(C)Cc1ccc(C(=O)Nc2ccccc2N)cc1`: the AC40 is 11 µM.

As for `C[C@@H]1CN([C@H](C)CO)C(=O)c2cc(NC(=O)Nc3cccc4ccccc34)ccc2O[C@H]1CN(C)Cc1ccc(C(=O)Nc2ccccc2N)cc1`, the AC40 is 17 µM.

In the case of `Cc1ccc(NS(=O)(=O)c2ccc(-n3cccn3)cc2)cc1C`, the AC40 was 16.1 µM.

For `Cc1ccc(C)c(NC(=O)C2CC3c4ccccc4C2c2ccccc23)c1` (stereo not drawn), the AC40 was 3.1 µM.

Consider `CC(C)C(=O)N(c1ccc2oc(=O)sc2c1)S(=O)(=O)c1ccccc1`, for which the AC40 was 3.85 µM.

`COc1cc(/C=C(/C(=O)c2cccs2)c2nc3ccccc3[nH]2)cc(OC)c1O`: the AC40 is 1.38 µM.

On to `N#CCCCSc1nnc(CSc2nc3ccccc3s2)n1-c1ccccc1`, for which the AC40 is 9.75 µM.

In the case of `Cc1cccc(-n2c(O)c(C=NC3CCS(=O)(=O)C3)c3ccccc3c2=O)c1` (stereo not drawn), the AC40 was 17.6 µM.
